Experimental data: patent US5316767A, “Whitening cosmetic composition” (priority 1990, dated 1994)
≈ marks a conversion by molar mass, not a printed value. Numbered stars: 1 amine (or outer) side, 2 acyl side, 3 side chain; on linkers, the order of the positions; unused ones are H or OH. Bridge positions count the residues as written; N and C are the ends. Square brackets hold non-standard residues; d marks the D form. Peptide text beside a SMILES is read from it. I, II: the chains in the order shown. γGlu = O=C(O)[C@H](CCC(=O)[*:2])N[*:1]

How the values were obtained:
physchem [1] = conditions: pH 6.5
physchem [2] = conditions: pH 6.5; remark: listed apart in the source
physchem [3] = conditions: water
B16-C melanoma cells = experiment: Melanin formation inhibitory activity in B16-C melanoma cells (Experiment 2); format: cell-based, mouse
Protocol: After 2 ml of MEM medium (manufactured by Nissui Pharmaceutical Co.) (serum concentration of 5%) was added in a 6-well culture plate, mouse-derived B16-C melanoma cells were plated at 2×10^5 cells/well and test compounds were then separately added. B16-C melanoma cells were cultured at 37° C. in 5% CO2 incubator. On Day 3 and Day 5, the medium was exchanged and at the same time, the test compounds were separately added. On Day 7, the medium was removed. The cells were trypsinized and resuspended in PBS and pelleted by centrifugation. […] The protein content in the cells and the amount of melanin formed were determined, whereby the amount of melanin formed (μg) per protein content (mg) were calculated. The protein content and the amount of melanin formed were quantitatively determined by the method of Bradford et al. [Analytical Biochemistry, 72, 248-254 (1976)] and by measuring absorbance of the test solution at 470 nm [Cancer Research, 45, 1474-1478 (1985)], respectively.

[4] = Heat stability: residual rate after heating at 100° C. for 20 minutes; conditions: pH 6.5
[5] = Storage stability: residual rate after allowing to stand at 40° C. for 30 days
[6] = 0.5 mM, first series (nothing added: 211.4 ± 11.45)
[7] = 1.0 mM, first series (nothing added: 211.4 ± 11.45)
[8] = 0.25 mM, first series (nothing added: 211.4 ± 11.45)

## N[C@@H](CCC(=O)N[C@@H](CSSC[C@H](N)C(=O)O)C(=O)O)C(=O)O [γ-L-glutamyl-L-cystine]
Physchem [1]
  remaining at 20 min, 10000 µM: 100%
Physchem [2]
  remaining at 720 h, 10000 µM: 100%
Physchem [3]
  solubility: > 742 mg/mL

## N[C@@H](CCC(=O)N[C@@H](CSSC[C@H](NC(=O)CC[C@H](N)C(=O)O)C(=O)O)C(=O)O)C(=O)O [γ-L-glutamyl-L-cysteine disulfide]
B16-C melanoma cells; [6]
  Melanin Content/Protein Content: 189.3 ± 10.56 µg/mg
B16-C melanoma cells; [7]
  Melanin Content/Protein Content: 155.6 ± 7.68 µg/mg
B16-C melanoma cells; 2.0 mM, first series (nothing added: 211.4 ± 11.45)
  Melanin Content/Protein Content: 154.7 ± 12.16 µg/mg
B16-C melanoma cells; Table 3
  Inhibition of melanin formation in B16-C melanoma cells: significantly inhibiting melanin formation
Physchem [1]
  remaining at 20 min, 10000 µM: 100%
Physchem [2]
  remaining at 720 h, 10000 µM: 100%
Physchem [3]
  solubility: > 554 mg/mL

## N[C@@H](CCC(=O)N[C@@H](CS)C(=O)NCC(=O)O)C(=O)O [Glutathione, γ-L-glutamyl-L-cysteinyl-glycine]
Physchem [1]
  remaining at 20 min, 10000 µM: 70%
Physchem [2]
  remaining at 720 h, 10000 µM: 0%

## OC[C@H]1O[C@@H](Oc2ccc(O)cc2)[C@H](O)[C@@H](O)[C@@H]1O [Arbutin]
B16-C melanoma cells; [8]
  Melanin Content/Protein Content: 108.7 ± 13.04 µg/mg
B16-C melanoma cells; [6]
  Melanin Content/Protein Content: 89.2 ± 13.48 µg/mg
B16-C melanoma cells; [7]
  Melanin Content/Protein Content: growth inhibition
Physchem [1]
  remaining at 20 min, 10000 µM: 100%
Physchem [2]
  remaining at 720 h, 10000 µM: 100%
Physchem [3]
  solubility: 142 mg/mL (≈ 520 mM)

## CC(=O)N[C@@H](CCC(=O)N[C@@H](CSSC[C@H](NC(=O)CC[C@H](NC(C)=O)C(=O)O)C(=O)NCC(=O)O)C(=O)NCC(=O)O)C(=O)O [N,N'-diacetyl-oxidized glutathione, N,N'-diacetyl oxidized glutathione] (I: Ac-[γGlu]-Cys-Gly-OH / II: Ac-[γGlu]-Cys-Gly-OH; disulfide I:2-II:2)
B16-C melanoma cells; 1.0 mM, second series (nothing added: 330.1 ± 22.5)
  Melanin Content/Protein Content: 221.4 ± 18.6 µg/mg
B16-C melanoma cells; 2.0 mM, second series (nothing added: 330.1 ± 22.5)
  Melanin Content/Protein Content: 198.1 ± 8.5 µg/mg
B16-C melanoma cells; Table 3
  Inhibition of melanin formation in B16-C melanoma cells: significantly inhibiting melanin formation
Physchem [1]
  remaining at 20 min, 10000 µM: 100%
Physchem [2]
  remaining at 720 h, 10000 µM: 100%
Physchem [3]
  solubility: > 200 mg/mL

## O=c1cc(CO)occ1O [Kojic acid]
B16-C melanoma cells; [8]
  Melanin Content/Protein Content: 233.7 ± 14.37 µg/mg
B16-C melanoma cells; [6]
  Melanin Content/Protein Content: 202.4 ± 11.49 µg/mg
B16-C melanoma cells; [7]
  Melanin Content/Protein Content: 188.6 ± 9.93 µg/mg
B16-C melanoma cells; Table 3
  Activity for inhibiting melanin formation as compared with γ-L-glutamyl-L-cysteine disulfide and oxidized glutathione: poorer
Water solubility
  solubility: 48.3 mg/mL (≈ 340 mM)
[4]
  remaining at 20 min, 10000 µM: 100%
[5]; 40° C., 30 days, pH 6.5, 10 mM
  Coloration: colored
[5]; pH 6.5
  remaining at 720 h, 10000 µM: 100%
